The values below come from patent US9840464B2, “IAP binding compounds” (TetraLogic Birinapant UK Ltd., priority 2004, dated 2017).

Structures are written as SMILES.

Chain of XIAP-BIR3 (P98170 241-356 limits assumed): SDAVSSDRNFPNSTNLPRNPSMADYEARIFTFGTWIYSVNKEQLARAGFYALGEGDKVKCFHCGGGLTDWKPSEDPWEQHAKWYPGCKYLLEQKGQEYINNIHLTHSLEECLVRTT

For this assay, the target named is XIAP-BIR3 (Homo sapiens, UniProt P98170). Nature of the assay: XIAP BIR3 fluorescence polarization binding assay (competition with AbuRPF-K(5-Fam)-NH2). As to conditions: 5 nM AbuRPF-K(5-Fam)-NH2, 40 nM XIAP-BIR3, pH 7.5; Kd calculated from measured IC50; read-out: KD Range. How it is done:
Binding constants (Kd) were measured using fluorescence polarization as described by Zaneta Nikolovska-Coleska, Renxiao Wang, Xueliang Fang, Hongguang Pan, York Tomita, Peng Li, Peter P. Roller, Krzysztof Krajewski, Naoyuki Saito, Jeanne Stuckey and Shaomeng Wang, in “Development and Optimization of a Binding Assay for the XIAP BIR3 Domain Using Fluorescence Polarization”, Analytical Biochemistry 2004, 332, 261-273). Briefly, test IAP binding compounds at various concentrations for binding measurements were mixed with 5 nM fluorescently labeled peptide (AbuRPF-K(5-Fam)-NH2) and 40 nM of XIAP-BIR3 for 15 minutes at room temperature in 100 μL of 0.1M Potassium Phosphate buffer, pH 7.5 containing 100 μg/ml bovine γ-globulin. Following incubation, the polarization values (mP) were measured on a Victor^2V using a 485 nm excitation filter and a 520 nm emission filter. IC50 values were determined from the plot using nonlinear least-squares analysis using GraphPad Prism. The Kd values of competitive inhibitors were calculated using the equation described by Zaneta Nikolovska-Coleska et al. based upon the measured IC50 values, the Kd value of the probe and XIAP BIR3 complex, and the concentrations of the protein and probe in the competition assay. In various examples of IAP binding or IAP binding cargo molecules ranges for Kd values: Group A: Kd<0.1 μM; Group B: Kd=0.1-1 μM; Group C: Kd=1-10 μM; Group D: Kd>10 μM.
As for `Cc1cccc(C)c1OCCC[C@@H]1C[C@H](Oc2ccccc2)CN1C(=O)[C@@H](NC(=O)[C@H](C)N)C(C)C` [Entry 4-31], the equilibrium dissociation constant (Kd) was 100 to 1000 nM.

As to `CC(=O)n1cc(CC2CCCN2C(=O)C(NC(=O)CN)C(C)C)c2ccccc21` (stereo not shown) [Entry 14-95], the equilibrium dissociation constant (Kd) was greater than 10000 nM.

`CN[C@@H](C)C(=O)N[C@H](C(=O)N1C[C@@H](Oc2ccccc2)C[C@H]1/C=C/COc1cccc(Cl)c1Cl)C(C)C` [Entry 3-13]: the Kd is 100 to 1000 nM.

`CC[C@H](NC(=O)[C@@H](N)CC)C(=O)N1C[C@@H](Oc2ccccc2)C[C@H]1Cc1coc2ccccc12` [Entry 5-55]: the Kd is 100 to 1000 nM.

In the case of `CC(C)Oc1ccccc1OC/C=C/[C@@H]1C[C@H](Oc2ccccc2)CN1C(=O)[C@@H](NC(=O)[C@H](C)N)C(C)C` [Entry 3-15], the Kd is 100 to 1000 nM.

As to `CC(N)C(=O)NC(C(=O)N1CCCC1Cc1c(Br)oc2ccccc12)C(C)C` (stereo not shown) [Entry 9-80], the Kd is 100 to 1000 nM.

Take `CNC(C)C(=O)NC(C(=O)N1CCCC1Cc1cn(C(C)=O)c2cc(F)ccc12)C1CCCCC1` (stereo not shown) [Entry 14-97]: the dissociation constant (Kd) is 100 to 1000 nM.

Consider `CC(C)c1ccccc1OCCC[C@@H]1C[C@H](Oc2ccccc2)CN1C(=O)[C@@H](NC(=O)[C@H](C)N)C(C)C` [Entry 4-30], for which the Kd is 100 to 1000 nM.

With `CC(N)C(=O)NC(C(=O)N1CC(Oc2ccccc2)CC1Cc1coc2ccccc12)C(C)C` (single isomer, unassigned) [Entry 5-53], the dissociation constant (Kd) was 1000 to 10000 nM.

Take `CCc1ccccc1OCCC[C@H]1C[C@H](Oc2ccccc2)CN1C(=O)[C@@H](NC(=O)[C@H](C)N)C(C)C` [Entry 4-25, 2S-Amino-N-(1S-{2S-[3-(2-ethyl-phenoxy)-propyl]-4S-phenoxy-pyrrolidine-1-carbonyl}-2-methyl-propyl)-propionamide]: the dissociation constant Kd is 100 to 1000 nM.

For the compound `CC(N)C(=O)NC(C(=O)N1CCCC1Cc1c(-c2ccccc2)[nH]c2ccccc12)C(C)C` (stereo not shown) [Entry 9-88], the Kd is 1000 to 10000 nM.

As to `CC(N)C(=O)NC(C(=O)N1CCCC1Cc1coc2ccc(O)cc12)C(C)C` (stereo not shown) [Entry 6-75, 2-Amino-N-{1-[2-(5-hydroxy-benzofuran-3-ylmethyl)-pyrrolidine-1-carbonyl]-2-methyl-propyl}-propionamide], the Kd was 1000 to 10000 nM.

In the case of `CCc1ccccc1OCCC[C@@H]1C[C@H](Oc2ccccc2)CN1C(=O)[C@@H](NC(=O)[C@H](C)NC)C(C)(C)C` [Entry 4-28], the Kd was 100 to 1000 nM.

With `CC(=O)NC(C)C(=O)NC(C(=O)N1CCCC1Cc1coc2ccccc12)C(C)C` (stereo not shown) [Entry 5-65], the Kd was greater than 10000 nM.

As to `CC(C)[C@H](NC(=O)[C@H](C)N)C(=O)N1C[C@@H](Oc2ccccc2)C[C@H]1/C=C/COc1cccc(Br)c1` [Entry 3-14], the dissociation constant Kd was 100 to 1000 nM.

Consider `CC(N)C(=O)NC1CCCCNC(=O)CCc2oc3ccccc3c2CC2CCCN2C1=O` (stereo not shown) [Entry 12-92], for which the dissociation constant Kd is 1000 to 10000 nM.

Turning to `CCc1ccccc1OCCCC1CCCN1C(=O)C(NC(=O)C(C)N)C(C)C` (stereo not shown) [Entry 4-34], the Kd was 1000 to 10000 nM.

Regarding `CN[C@@H](C)C(=O)N[C@H](C(=O)N1C[C@@H](Oc2ccccc2)C[C@H]1Cc1coc2ccccc12)C1CCCCC1` [Entry 5-43], the Kd is less than 100 nM.

Regarding `CN[C@@H](C)C(=O)N[C@H](C(=O)N1C[C@@H](Oc2ccccc2)C[C@H]1COc1ccccc1)C(C)C` [Entry 2-2], the equilibrium dissociation constant (Kd) was 100 to 1000 nM.

Take `CNC(C)C(=O)NC(C(=O)N1CCCC1Cc1c(-c2cccs2)[nH]c2cc(F)ccc12)C(C)(C)C` (stereo not shown) [Entry 15-108]: the dissociation constant (Kd) is less than 100 nM.

Turning to `Cc1cccc2c(CC3CCCN3C(=O)C(NC(=O)C(C)N)C(C)C)c[nH]c12` (stereo not shown) [Entry 14-100], the Kd was less than 100 nM.

Consider `CC(N)C(=O)NC(C(=O)N1CCCC1CCCOc1ccccc1)C(C)C` (stereo not shown) [Entry 4-37], for which the dissociation constant Kd was 1000 to 10000 nM.

As to `CC(N)C(=O)NC(C(=O)N1CCCC1CCCOc1ccccc1-c1ccccc1)C(C)C` (single isomer, unassigned) [Entry 4-36], the Kd is greater than 10000 nM.

In the case of `CNC(C)C(=O)NC(C(=O)N1CCCC1Cc1cn(CCOCCOCCOC)c2ccccc12)C1CCCCC1` (stereo not shown) [Entry 16-111], the dissociation constant (Kd) is 100 to 1000 nM.

Consider `CCOC(=O)CCc1oc2ccccc2c1CC1CCCN1C(=O)C(NC(=O)C(C)N)C(C)C` (stereo not shown) [Entry 10-89, 3-(3-{1-[2-(2-Amino-propionylamino)-3-methyl-butyryl]-pyrrolidin-2-ylmethyl}-benzofuran-2-yl)-propionic acid ethyl ester], for which the dissociation constant (Kd) was 1000 to 10000 nM.

With `CC(N)C(=O)NC(C(=O)N1CCCC1Cc1coc2ccc(Cl)cc12)C(C)C` (stereo not shown) [Entry 5-61], the Kd was less than 100 nM.

Take `CC(C)[C@H](NC(=O)[C@H](C)N)C(=O)N1CCC[C@H]1Cc1c(-c2ccncc2)oc2ccccc12` [Entry 9-81, 2S-Amino-N-{2-methyl-1S-[2S-(2-pyridin-4-yl-benzofuran-3-ylmethyl)-pyrrolidine-1-carbonyl]-propyl}-propionamide]: the Kd was less than 100 nM.

As to `CC(C)C(NC(=O)CN)C(=O)N1CC(Oc2ccccc2)CC1Cc1coc2ccccc12` (stereo not shown) [Entry 5-52], the Kd is 1000 to 10000 nM.

`CC(C)Oc1ccccc1OCCCC1CCCN1C(=O)C(NC(=O)C(C)N)C(C)C` (stereo not shown) [Entry 4-35]: the Kd is 1000 to 10000 nM.

As to `CC(=O)n1cc(CC2CCCN2C(=O)C(NC(=O)C(C)N)C(C)C)c2cccc(C)c21` (stereo not shown) [Entry 14-98], the Kd is less than 100 nM.

As for `CC(C)[C@H](NC(=O)[C@H](C)N)C(=O)N1C[C@@H](Oc2ccccc2)C[C@H]1/C=C/COc1ccc(Cl)cc1Cl` [Entry 3-11], the Kd was 100 to 1000 nM.

`CC(NC(=O)OC(C)(C)C)C(=O)NC(C(=O)N1CCCC1Cc1cn(C(=O)OC(C)(C)C)c2ccccc12)C(C)C` (stereo not shown) [Entry 14-101]: the equilibrium dissociation constant (Kd) was greater than 10000 nM.

As to `CC(N)C(=O)NC(C(=O)N1CCCC1Cc1c(-c2cnccn2)oc2ccccc12)C(C)C` (stereo not shown) [Entry 9-86], the Kd was less than 100 nM.

For the compound `CC(N)C(=O)NC(C(=O)N1CCCC1Cc1coc2ccccc12)C1CCCCC1` (stereo not shown) [Entry 5-47], the equilibrium dissociation constant (Kd) is less than 100 nM.

Take `CC(C)C(NC(=O)C1CCCN1)C(=O)N1CCCC1Cc1coc2ccccc12` (stereo not shown) [Entry 5-74]: the dissociation constant Kd is greater than 10000 nM.

For the compound `CC(N)C(=O)NC(C(=O)N1CCCC1Cc1c(CCC(=O)O)oc2ccccc12)C(C)C` (stereo not shown) [Entry 10-90], the Kd is 100 to 1000 nM.

`CCc1ccccc1OCCC[C@@H]1C[C@H](Oc2ccccc2)CN1C(=O)[C@@H](NC(=O)[C@H](C)NC)C(C)C` [Entry 4-26]: the dissociation constant Kd was 100 to 1000 nM.

For `CC(C)[C@H](NC(=O)[C@H](C)N)C(=O)N1C[C@@H](Oc2ccccc2)C[C@H]1/C=C/COc1ccccc1-c1ccccc1` [Entry 3-20], the equilibrium dissociation constant (Kd) was 100 to 1000 nM.

As to `Cc1cccc(C)c1OC/C=C/[C@@H]1C[C@H](Oc2ccccc2)CN1C(=O)[C@@H](NC(=O)[C@H](C)N)C(C)C` [Entry 3-22], the Kd was less than 100 nM.

Consider `CC(C)C(NC(=O)CN)C(=O)N1CCCC1Cc1coc2ccccc12` (stereo not shown) [Entry 5-46], for which the dissociation constant Kd was greater than 10000 nM.

As for `CNC(C)C(=O)NC(C(=O)N1CCCC1COc1ccccc1-c1ccccc1)C(C)C` (stereo not shown) [Entry 2-5], the dissociation constant (Kd) is 100 to 1000 nM.

Turning to `CC(C)[C@H](NC(=O)[C@H](C)N)C(=O)N1CCC[C@H]1Cc1coc2ccccc12` [Entry 5-41, 2S-Amino-N-[1S-(2S-benzofuran-3-ylmethyl-pyrrolidine-1-carbonyl)-2-methyl-propyl]-propionamide], the dissociation constant (Kd) was less than 100 nM.

For the compound `CC(C)Oc1ccccc1OCCC[C@@H]1C[C@H](Oc2ccccc2)CN1C(=O)[C@@H](NC(=O)[C@H](C)N)C(C)C` [Entry 4-29], the Kd is 100 to 1000 nM.

`CCC(NC)C(=O)NC(C(=O)N1CCCC1Cc1cn(CCOCCOCCOC)c2ccccc12)C1CCCCC1` (stereo not shown) [Entry 16-110]: the Kd is 100 to 1000 nM.

On to `CC(C)[C@H](NC(=O)[C@H](C)N)C(=O)N1C[C@@H](Oc2ccccc2)C[C@H]1/C=C/COc1cccc(Cl)c1Cl` [Entry 3-10], for which the Kd is 100 to 1000 nM.

As for `CNC(C)C(=O)NC(C(=O)N1CCCC1Cc1c(Br)n(CCOCCOCCOC)c2cc(F)ccc12)C(C)(C)C` (stereo not shown) [Entry 16-113], the dissociation constant Kd is less than 100 nM.

Regarding `CNC(C)C(=O)NC(C(=O)N1CCCC1Cc1coc2ccccc12)C(C)C` (stereo not shown) [Entry 5-57], the Kd is less than 100 nM.

`C#CCOC(C)[C@H](NC(=O)[C@H](C)N)C(=O)N1CCC[C@H]1Cc1coc2ccccc12` (stereo partly shown) [Entry 5-60]: the dissociation constant Kd is less than 100 nM.

Turning to `CNC(C)C(=O)NC(C(=O)N1CCCC1Cc1c(Br)n(CCOCCOCCO)c2cc(F)ccc12)C(C)(C)C` (stereo not shown) [Entry 16-112], the Kd is less than 100 nM.

The term Kd denotes the concentration at which binding is half-saturated.
